Test results from ChEMBL document CHEMBL6114994, “Ligustrazine as a multitarget scaffold in drug design and discovery” (Bioorg Med Chem, 2025).
Values after ≈ are worked out from the molar mass of the structure shown.

How the values were obtained:
A549 = assay: cells; details: Homo sapiens
Description: Antiproliferative activity against human A549 cells assessed as reduction in cell viability by MTT assay

MCF7 = assay: Antiproliferative activity against human MCF7 cells assessed as reduction in cell viability incubated for 72 hrs by MTT assay; assay type: functional, cell-based; details: MCF7, 72 h
MDA-MB-231 = assay: Antiproliferative activity against human MDA-MB-231 cells assessed as reduction in cell viability incubated for 72 hrs by MTT assay; assay type: functional, cell-based; details: MDA-MB-231, 72 h
HCT-116 = assay: Antiproliferative activity against human HCT-116 cells assessed as reduction in cell viability incubated for 72 hrs by MTT assay; assay type: functional, cell-based; details: HCT-116, 72 h
SH-SY5Y [1] = assay: Cytoprotective activity against OGD/R induced human SH-SY5Y cells assessed as assessed as cell survival rate at 10 uM measured after 8 hrs by MTT assay relative to control; assay type: functional
SH-SY5Y [2] = assay: Cytoprotective activity against H2O2-induced oxidative stress in human SH-SY5Y cells assessed as increase in cell viability incubated for 24 hrs by MTT assay; assay type: functional, cell-based
PC-12 = assay: Cytoprotective activity against COCL2-induced cellular damage in rat PC12 cells assessed as reduction in cell viability incubated for 48 hrs by MTT assay; assay type: functional, cell-based; details: PC-12, 48 h
MDCK = assay: Cytotoxicity against dog MDCK cells assessed as inhibition of cell growth at 10 uM relative to control; assay type: functional, Canis lupus familiaris; design: scale not given: the % may be the effect or the level left
HepG2 = assay: Cytotoxicity against human HepG2 cells assessed as inhibition of cell growth at 10 uM incubated for 72 hrs by MTT assay relative to control; assay type: functional; design: scale not given: the % may be the effect or the level left
Acetylcholinesterase [3] = molecular target: T1, Acetylcholinesterase (Homo sapiens, UniProt P22303); assay: Inhibition of AChE (unknown origin) by Ellman's method
T1 sequence (P22303 whole entry): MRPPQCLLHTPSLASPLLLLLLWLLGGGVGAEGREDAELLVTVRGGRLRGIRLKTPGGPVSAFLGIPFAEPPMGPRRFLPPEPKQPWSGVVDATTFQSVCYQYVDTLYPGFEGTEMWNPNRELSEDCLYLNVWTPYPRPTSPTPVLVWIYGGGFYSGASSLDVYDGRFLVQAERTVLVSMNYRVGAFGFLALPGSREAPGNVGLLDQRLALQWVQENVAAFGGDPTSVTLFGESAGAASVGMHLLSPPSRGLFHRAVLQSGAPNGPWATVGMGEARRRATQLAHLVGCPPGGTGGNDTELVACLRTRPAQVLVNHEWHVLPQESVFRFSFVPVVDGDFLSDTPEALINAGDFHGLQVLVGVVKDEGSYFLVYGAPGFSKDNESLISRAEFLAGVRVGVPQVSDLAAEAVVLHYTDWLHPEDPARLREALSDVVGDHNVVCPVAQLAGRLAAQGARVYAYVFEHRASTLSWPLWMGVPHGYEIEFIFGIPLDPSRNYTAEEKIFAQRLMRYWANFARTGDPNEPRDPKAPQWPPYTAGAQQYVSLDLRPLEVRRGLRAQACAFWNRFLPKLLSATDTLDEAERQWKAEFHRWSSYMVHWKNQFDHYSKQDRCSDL

[4] = molecular target: Aldo-keto reductase family 1 member B1 (Rattus norvegicus, UniProt P07943); assay: Inhibition of rat lens aldose reductase
[5] = Inhibition of accumulation of sorbitol in human Red blood cells; assay type: functional, cell-based; details: erythrocyte
HUVEC = assay: Protection against H2O2-induced oxidative stress in HUVEC cells; assay type: functional, cell-based; details: Homo sapiens
[6] = molecular target: T2, Prostaglandin G/H synthase 1 (Ovis aries, UniProt P05979); assay: Inhibition of ovine COX-1 by EIA method
T2 sequence (P05979 whole entry): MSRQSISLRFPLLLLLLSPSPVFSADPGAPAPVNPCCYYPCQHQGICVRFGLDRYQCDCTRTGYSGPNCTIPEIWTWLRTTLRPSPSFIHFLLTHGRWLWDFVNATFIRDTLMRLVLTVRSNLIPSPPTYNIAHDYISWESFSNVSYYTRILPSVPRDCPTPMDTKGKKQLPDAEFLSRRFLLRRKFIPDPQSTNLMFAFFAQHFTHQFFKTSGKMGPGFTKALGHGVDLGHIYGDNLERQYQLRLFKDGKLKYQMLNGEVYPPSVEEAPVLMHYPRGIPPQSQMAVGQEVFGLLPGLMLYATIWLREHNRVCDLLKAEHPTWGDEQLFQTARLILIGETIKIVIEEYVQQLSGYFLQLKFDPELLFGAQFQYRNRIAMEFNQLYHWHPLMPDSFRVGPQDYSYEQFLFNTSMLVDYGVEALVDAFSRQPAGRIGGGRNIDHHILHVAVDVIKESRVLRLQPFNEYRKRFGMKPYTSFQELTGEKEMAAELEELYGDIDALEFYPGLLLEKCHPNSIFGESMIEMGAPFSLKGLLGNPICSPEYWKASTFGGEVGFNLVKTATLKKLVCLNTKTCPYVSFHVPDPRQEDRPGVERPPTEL

[7] = Inhibition of Lipoxygenase (unknown origin); design: species or system Homo sapiens
[8] = Solubility in water by HPLC analysis; assay type: physicochemical
Acetylcholinesterase [9] = molecular target: T1, Acetylcholinesterase; assay: Inhibition of AChE (unknown origin)
[10] = Solubility in water; assay type: physicochemical
[11] = Cytoprotective activity against H2O2-induced oxidative stress in human HBMEC-2 cells assessed as increase in cell viability incubated for 24 hrs by MTT assay; assay type: functional, cell-based; details: HBMEC-2, 24 h

COc1ccc(/C=C/C(=O)/C=C/c2nc(C)c(C)nc2C)cc1O
IC50 (A549): 2190 nM

Cc1nc(C)c(C(=O)N2CCN(C(=O)C3=Cc4c(Br)cccc4S3(=O)=O)CC2)nc1C
IC50 (MCF7): 3290 nM | IC50 (MDA-MB-231): 4860 nM | IC50 (HCT-116): 6440 nM

CCCCC(OC(=O)CN1CCN(C)CC1)c1ccc(I)cc1C(=O)OCc1nc(C)c(C)nc1C (configuration not stated)
Activity (SH-SY5Y [1]): 90%

CC(=O)Oc1ccc(C[C@@H](OC(C)=O)C(=O)OCc2nc(C)c(C)nc2C)cc1OC(C)=O
EC50 (SH-SY5Y [2]): 2560 nM

COc1cc(C(=O)Nc2cccc(N(C)C)c2)ccc1OCc1nc(C)c(C)nc1C
EC50 (PC-12): 17400 nM

O=[N+]([O-])c1ccc2c(c1)S(=O)(=O)C=C2
IC50 (MCF7): 2080 nM | IC50 (MDA-MB-231): 3900 nM | IC50 (HCT-116): 1710 nM

C=C(C)[C@@H]1CC[C@]2(C(=O)OCc3nc(C)c(C)nc3C)CC[C@]3(C)[C@H](CC[C@@H]4[C@@]5(C)CC[C@H](O)C(C)(C)[C@@H]5CC[C@]43C)[C@@H]12
Activity (MDCK): 26.5% | Activity (HepG2): 99.87%

COc1cc(/C=C/C(=O)c2ccc(OCCN3CCCC3)cc2)ccc1OCc1nc(C)c(C)nc1C
IC50 (Acetylcholinesterase [3]): 980 nM

O=C(/C=C/c1ccc(O)cc1)c1ccc(O)cc1O [ISOLIQUIRITIGENIN]
IC50 [4]: 320 nM | IC50 [5]: 2000 nM

Cc1nc(C)c(/C=C/c2nc(C)c(C)nc2C)nc1C
EC50 (HUVEC): 25600 nM

COc1ccc(/C=C2\CN(C)C/C(=C\c3nc(C)c(C)nc3C)C2=O)c(Cl)c1
IC50 [6]: 500 nM

Cc1nc(C)c(/C=C2\CN(C)C/C(=C\c3nc(C)c(C)nc3C)C2=O)nc1C
IC50 [7]: 7500 nM

O=c1c(-c2ccc(O)cc2)coc2cc(O)cc(O)c12 [GENISTEIN]
solubility [8]: 0.029 µg/mL (≈ 0.107 µM)

Cc1nc(C)c(C(=O)NC2CCN(C(=O)C3=Cc4ccccc4S3(=O)=O)CC2)nc1C
IC50 (MCF7): > 10000 nM | IC50 (MDA-MB-231): > 10000 nM | IC50 (HCT-116): > 10000 nM

Cc1nc(C)c(C(=O)NC2CCN(C(=O)C3=Cc4ccccc4S3(=O)=O)C2)nc1C (configuration not stated)
IC50 (MCF7): > 10000 nM | IC50 (MDA-MB-231): > 10000 nM | IC50 (HCT-116): > 10000 nM

COC(=O)C1=CO[C@H](OC)[C@H]2C(CN3CCN(Cc4nc(C)c(C)nc4C)CC3)=CC[C@@H]12
IC50 (Acetylcholinesterase [9]): 218 nM

Cc1nc(C)c(COC(=O)/C=C/c2ccc(OCc3nc(C)c(C)nc3C)cc2)nc1C
EC50 (PC-12): 3680 nM

Cc1nc(C)c(CN2CCN(C(=O)C3=Cc4c(Cl)cccc4S3(=O)=O)CC2)nc1C
IC50 (MCF7): 1500 nM | IC50 (MDA-MB-231): 2200 nM | IC50 (HCT-116): 2670 nM

C=CCC(CC=C)(OC(=O)[C@@H](Cc1ccc(OC(C)=O)c(OC(C)=O)c1)OC(=O)CN)c1nc(C)c(C)nc1C
solubility [10]: > 0.1 µg/mL

COc1cc(CNC(=O)c2ccc(O)c(O)c2)ccc1OCc1nc(C)c(C)nc1C
EC50 [11]: 4150 nM
